Measurements from patent US12415834B2, “GhR-binding peptide and composition comprising same” (priority 2021, dated 2025).
pKd: −log10 of the molar value. Starred links: 1 amine or outer side, 2 acyl side, 3 side chain; linkers in the order of their positions; H or OH if unused. Positions of bridges follow the written chain, without caps; N, C: chain ends. Non-standard residues stand in square brackets, D forms with d. Residues, ends and D or L forms follow the SMILES beside them. Groups on a side chain read outwards from the residue. *: point of attachment. X3 = NC(=O)[C@H](CCCCN*)NC(=O)CC[C@H](NC(=O)CC[C@H](NC(=O)CCCCCCCCCCCCCCC(=O)O)C(=O)O)C(=O)O; X10 = NC(=O)[C@H](CCCCN*)NC(=O)CC[C@H](NC(=O)CC[C@H](NC(=O)CCCc1ccc(I)cc1)C(=O)O)C(=O)O; Trp(1-CH2CO) = O=C([C@H](Cc1cn(CC(=O)[*:3])c2ccccc12)N[*:1])[*:2]; Trp(5-OH) = N[C@@H](Cc1c[nH]c2ccc(O)cc12)C(=O)O; Phe(4-COOH) = N[C@@H](Cc1ccc(C(=O)O)cc1)C(=O)O; Piperazinyl(4-CH2COOH) = O=C(O)CN1CCN(*)CC1; X7 = O=C(O)CN1CCC(N[*:1])(C(=O)[*:2])CC1; C16 diacid = O=C(O)CCCCCCCCCCCCCCC(=O)*; γGlu = O=C(O)[C@H](CCC(=O)[*:2])N[*:1]; NMeK = CN[C@@H](CCCCN)C(=O)O; Aib = CC(C)(N)C(=O)O; CO = O=C([*:1])[*:2]

Molecular target: T1, Recombinant human GhR-Fc protein (Homo sapiens, UniProt P10912)
T1 construct: purchased R&D Systems
T1 sequence (P10912 with tags, fused parts or gaps limits assumed): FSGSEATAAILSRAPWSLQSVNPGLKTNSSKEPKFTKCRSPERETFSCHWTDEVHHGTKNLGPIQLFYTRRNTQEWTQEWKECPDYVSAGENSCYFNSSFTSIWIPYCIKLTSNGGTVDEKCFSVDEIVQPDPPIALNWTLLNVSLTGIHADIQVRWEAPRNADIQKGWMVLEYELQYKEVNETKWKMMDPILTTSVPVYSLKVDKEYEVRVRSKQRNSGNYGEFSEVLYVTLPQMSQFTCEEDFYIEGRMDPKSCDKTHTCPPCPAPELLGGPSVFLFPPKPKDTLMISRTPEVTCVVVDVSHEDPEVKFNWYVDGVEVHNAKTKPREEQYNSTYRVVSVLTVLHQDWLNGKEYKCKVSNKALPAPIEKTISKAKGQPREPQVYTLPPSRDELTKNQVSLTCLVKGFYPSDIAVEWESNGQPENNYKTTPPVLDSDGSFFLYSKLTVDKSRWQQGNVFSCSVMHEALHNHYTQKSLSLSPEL
Assay: SPR binding assay (Biacore T200, single-cycle kinetics) of peptides against immobilized human GhR-Fc
Conditions: SPR, hGhR; Table 1 bicyclic peptides; KD calculated from ka and kd; read-out: KD
Experimental: SPR assay was performed using Biacore T200 (cytiva: Former GE Healthcare). After the equilibration of Series S Sensor Chip CM5 (produced by cytiva: Former GE Healthcare) with Running Buffer (HBS-EP with 1% (v/v) DMSO), an EDC/NHS mixture was injected at a flow rate of 10 μL/min for 7 minutes to thereby activate the functional groups on sensor chip. Recombinant human GhR-Fc protein (R&D Systems) in 10 mM Acetate (pH 4.0) was injected immobilized to at a flow rate of 5 μL/min. It took 7 minutes to immobilize the GhR on the substrate surfaces of the sensor chip. Then Ethanolamine was injected at a flow rate of 10 μL/min for 7 minutes. 1M Ethanolamine (aq.) was injected at a flow rate of 10 μL/min for 420 seconds for capping.
Using these Peptide Samples, kinetics of peptides against human GhR-Fc protein were measured. The method adopted for sample measurement was a single-cycle kinetics method. The analysis was conducted using the evaluation software provided with Biacore T200. A DMSO correction curve obtained by solvent correction measurements was applied for the analysis. Kinetics fitting was done on the difference data obtained by subtracting the baseline data from sample measurement data. KD values were calculated based on the association rate constant (ka) and dissociation rate constant (kd). […]

Row | pKd | SMILES
1 | 8.65 | CC(C)[C@@H]1NC(=O)[C@H](C(C)C)NC(=O)[C@@H]2CCCCNC(=O)Cn3cc(c4ccccc43)C[C@H](NC(=O)[C@H](CC(N)=O)NC(=O)[C@H](CO)NC1=O)C(=O)N[C@@H](Cc1ccc(C(=O)O)cc1)C(=O)N[C@@H](CCCCN)C(=O)N[C@@H](Cc1c[nH]c3ccc(O)cc13)C(=O)NC(C)(C)C(=O)N[C@@H](C(C)C)C(=O)N[C@H](C(=O)NCC(=O)N1CCC[C@H]1C(=O)N[C@H](CO)C(=O)N[C@H](CO)C(=O)N[C@H](CO)C(=O)N[C@@H](CCCCNC(=O)CC[C@H](NC(=O)CC[C@H](NC(=O)CCCCCCCCCCCCCCC(=O)O)C(=O)O)C(=O)O)C(N)=O)CSCC(=O)N[C@@H](Cc1ccc(O)cc1)C(=O)N2C [Compound 25] ({CH2CO}-Y[NMeK]VVSN[Trp(1-CH2CO)][Phe(4-COOH)]K[Trp(5-OH)][Aib]VCGP[dS][dS][dS]K([γGlu-γGlu-C16 diacid])-NH2; lactam 2-7; thioether N-13)
2 | 8.80 | CC(C)[C@@H]1NC(=O)[C@H](C(C)C)NC(=O)[C@@H]2CCCCNC(=O)Cn3cc(c4ccccc43)C[C@H](NC(=O)[C@H](CC(N)=O)NC(=O)[C@H](CO)NC1=O)C(=O)N[C@@H](Cc1ccc(C(=O)O)cc1)C(=O)N[C@@H](CCCCN)C(=O)N[C@@H](Cc1c[nH]c3ccc(O)cc13)C(=O)NC(C)(C)C(=O)N[C@@H](C(C)C)C(=O)N[C@H](C(=O)NCCCC[C@H](NC(=O)CC[C@H](NC(=O)CC[C@H](NC(=O)CCCc1ccc(I)cc1)C(=O)O)C(=O)O)C(N)=O)CSCC(=O)N[C@@H](Cc1ccc(O)cc1)C(=O)N2C [Compound 26] ({CH2CO}-Y[NMeK]VVSN[Trp(1-CH2CO)][Phe(4-COOH)]K[Trp(5-OH)][Aib]VC-X10; lactam 2-7; thioether N-13)
3 | 8.75 | CC(C)[C@@H]1NC(=O)[C@H](C(C)C)NC(=O)[C@@H]2CCCCNC(=O)Cn3cc(c4ccccc43)C[C@H](NC(=O)[C@H](CC(N)=O)NC(=O)[C@H](CO)NC1=O)C(=O)N[C@@H](Cc1ccc(O)cc1)C(=O)N[C@@H](CCCCNC(=O)N1CCN(CC(=O)O)CC1)C(=O)N[C@@H](Cc1c[nH]c3ccc(O)cc13)C(=O)NC(C)(C)C(=O)N[C@@H](C(C)C)C(=O)N[C@H](C(=O)NCCCC[C@H](NC(=O)CC[C@H](NC(=O)CC[C@H](NC(=O)CCCCCCCCCCCCCCC(=O)O)C(=O)O)C(=O)O)C(N)=O)CSCC(=O)N[C@@H](Cc1ccc(O)cc1)C(=O)N2C [Compound 27] ({CH2CO}-Y[NMeK]VVSN[Trp(1-CH2CO)]YK([CO-Piperazinyl(4-CH2COOH)])[Trp(5-OH)][Aib]VC-X3; lactam 2-7; thioether N-13)
4 | 8.80 | CC(C)[C@@H]1NC(=O)[C@H](C(C)C)NC(=O)[C@@H]2CCCCNC(=O)Cn3cc(c4ccccc43)C[C@H](NC(=O)[C@H](CC(N)=O)NC(=O)[C@H](CO)NC1=O)C(=O)N[C@@H](Cc1ccc(O)cc1)C(=O)N[C@@H](CCCCN)C(=O)N[C@@H](Cc1c[nH]c3ccc(O)cc13)C(=O)NC1(CCN(CC(=O)O)CC1)C(=O)N[C@@H](C(C)C)C(=O)N[C@H](C(=O)NCCCC[C@H](NC(=O)CC[C@H](NC(=O)CC[C@H](NC(=O)CCCCCCCCCCCCCCC(=O)O)C(=O)O)C(=O)O)C(N)=O)CSCC(=O)N[C@@H](Cc1ccc(O)cc1)C(=O)N2C [Compound 29] ({CH2CO}-Y[NMeK]VVSN[Trp(1-CH2CO)]YK[Trp(5-OH)][X7]VC-X3; lactam 2-7; thioether N-13)
5 | 8.65 | CC(C)[C@@H]1NC(=O)[C@H](C(C)C)NC(=O)[C@@H]2CCCCNC(=O)Cn3cc(c4ccccc43)C[C@H](NC(=O)[C@H](CC(N)=O)NC(=O)[C@H](CO)NC1=O)C(=O)N[C@@H](Cc1ccc(O)cc1)C(=O)N[C@@H](CCCCN)C(=O)N[C@@H](Cc1c[nH]c3ccc(O)cc13)C(=O)NC1(CCN(CC(=O)O)CC1)C(=O)N[C@@H](C(C)C)C(=O)N[C@H](C(=O)NCC(=O)N1CCC[C@H]1C(=O)N[C@H](CO)C(=O)N[C@H](CO)C(=O)N[C@H](CO)C(=O)N[C@@H](CCCCNC(=O)CC[C@H](NC(=O)CC[C@H](NC(=O)CCCCCCCCCCCCCCC(=O)O)C(=O)O)C(=O)O)C(N)=O)CSCC(=O)N[C@@H](Cc1ccc(O)cc1)C(=O)N2C [Compound 30] ({CH2CO}-Y[NMeK]VVSN[Trp(1-CH2CO)]YK[Trp(5-OH)][X7]VCGP[dS][dS][dS]K([γGlu-γGlu-C16 diacid])-NH2; lactam 2-7; thioether N-13)
6 | 9.04 | CC(C)[C@@H]1NC(=O)[C@H](C(C)C)NC(=O)[C@@H]2CCCCNC(=O)Cn3cc(c4ccccc43)C[C@H](NC(=O)[C@H](CC(N)=O)NC(=O)[C@H](CO)NC1=O)C(=O)N[C@@H](Cc1ccc(O)cc1)C(=O)N[C@@H](CCCCN)C(=O)N[C@@H](Cc1c[nH]c3ccc(O)cc13)C(=O)NC(C)(C)C(=O)N[C@@H](C(C)C)C(=O)N[C@H](C(=O)NCC(=O)N1CCC[C@H]1C(=O)N[C@H](CO)C(=O)N[C@H](CO)C(=O)N[C@H](CO)C(=O)N[C@@H](CCCCNC(=O)CC[C@H](NC(=O)CC[C@H](NC(=O)CCCCCCCCCCCCCCC(=O)O)C(=O)O)C(=O)O)C(N)=O)CSCC(=O)N[C@@H](Cc1ccc(O)cc1)C(=O)N2C [Compound 31] ({CH2CO}-Y[NMeK]VVSN[Trp(1-CH2CO)]YK[Trp(5-OH)][Aib]VCGP[dS][dS][dS]K([γGlu-γGlu-C16 diacid])-NH2; lactam 2-7; thioether N-13)

The next lines start with the molecule.

Row | SMILES | pKd
7 | CC(C)[C@@H]1NC(=O)[C@H](C(C)C)NC(=O)[C@@H]2CCCCNC(=O)Cn3cc(c4ccccc43)C[C@H](NC(=O)[C@H](CC(N)=O)NC(=O)[C@H](CO)NC1=O)C(=O)N[C@@H](Cc1ccc(O)cc1)C(=O)N[C@@H](CCCCN)C(=O)N[C@@H](Cc1c[nH]c3ccc(O)cc13)C(=O)NC1(CCN(CC(=O)O)CC1)C(=O)N[C@@H](C(C)C)C(=O)N[C@H](C(=O)NCCCC[C@H](NC(=O)CC[C@H](NC(=O)CC[C@H](NC(=O)CCCCCCCCCCCCCCC(=O)O)C(=O)O)C(=O)O)C(N)=O)CSCC(=O)N[C@@H](Cc1ccc(C(=O)O)cc1)C(=O)N2C [Compound 18] ({CH2CO}-[Phe(4-COOH)][NMeK]VVSN[Trp(1-CH2CO)]YK[Trp(5-OH)][X7]VC-X3; lactam 2-7; thioether N-13) | 8.62
8 | CC(C)[C@@H]1NC(=O)[C@H](C(C)C)NC(=O)[C@@H]2CCCCNC(=O)Cn3cc(c4ccccc43)C[C@H](NC(=O)[C@H](CC(N)=O)NC(=O)[C@H](CO)NC1=O)C(=O)N[C@@H](Cc1ccc(O)cc1)C(=O)N[C@@H](CCCCN)C(=O)N[C@@H](Cc1c[nH]c3ccc(O)cc13)C(=O)NC(C)(C)C(=O)N[C@@H](C(C)C)C(=O)N[C@H](C(=O)NCCCC[C@H](NC(=O)CC[C@H](NC(=O)CC[C@H](NC(=O)CCCCCCCCCCCCCCC(=O)O)C(=O)O)C(=O)O)C(N)=O)CSCC(=O)N[C@@H](Cc1ccc(C(=O)O)cc1)C(=O)N2C [Compound 19] ({CH2CO}-[Phe(4-COOH)][NMeK]VVSN[Trp(1-CH2CO)]YK[Trp(5-OH)][Aib]VC-X3; lactam 2-7; thioether N-13) | 8.71
9 | CC(C)[C@@H]1NC(=O)[C@H](C(C)C)NC(=O)[C@@H]2CCCCNC(=O)Cn3cc(c4ccccc43)C[C@H](NC(=O)[C@H](CC(N)=O)NC(=O)[C@H](CO)NC1=O)C(=O)N[C@@H](Cc1ccc(O)cc1)C(=O)N[C@@H](CCCCN)C(=O)N[C@@H](Cc1c[nH]c3ccc(O)cc13)C(=O)NC(C)(C)C(=O)N[C@@H](C(C)C)C(=O)N[C@H](C(=O)NCC(=O)N1CCC[C@H]1C(=O)N[C@H](CO)C(=O)N[C@H](CO)C(=O)N[C@H](CO)C(=O)N[C@@H](CCCCNC(=O)CC[C@H](NC(=O)CC[C@H](NC(=O)CCCCCCCCCCCCCCC(=O)O)C(=O)O)C(=O)O)C(N)=O)CSCC(=O)N[C@@H](Cc1ccc(C(=O)O)cc1)C(=O)N2C [Compound 20] ({CH2CO}-[Phe(4-COOH)][NMeK]VVSN[Trp(1-CH2CO)]YK[Trp(5-OH)][Aib]VCGP[dS][dS][dS]K([γGlu-γGlu-C16 diacid])-NH2; lactam 2-7; thioether N-13) | 8.90
10 | CC(C)[C@@H]1NC(=O)[C@H](C(C)C)NC(=O)[C@@H]2CCCCNC(=O)Cn3cc(c4ccccc43)C[C@H](NC(=O)[C@H](CC(N)=O)NC(=O)[C@H](CO)NC1=O)C(=O)N[C@@H](Cc1ccc(O)cc1)C(=O)N[C@@H](CCCCN)C(=O)N[C@@H](Cc1c[nH]c3ccc(O)cc13)C(=O)NC(C)(C)C(=O)N[C@@H](C(C)C)C(=O)N[C@H](C(=O)NCCCC[C@H](NC(=O)CC[C@H](NC(=O)CC[C@H](NC(=O)CCCc1ccc(I)cc1)C(=O)O)C(=O)O)C(N)=O)CSCC(=O)N[C@@H](Cc1ccc(C(=O)O)cc1)C(=O)N2C [Compound 21] ({CH2CO}-[Phe(4-COOH)][NMeK]VVSN[Trp(1-CH2CO)]YK[Trp(5-OH)][Aib]VC-X10; lactam 2-7; thioether N-13) | 8.97
11 | CC(C)[C@@H]1NC(=O)[C@H](C(C)C)NC(=O)[C@@H]2CCCCNC(=O)Cn3cc(c4ccccc43)C[C@H](NC(=O)[C@H](CC(N)=O)NC(=O)[C@H](CO)NC1=O)C(=O)N[C@@H](Cc1ccc(C(=O)O)cc1)C(=O)N[C@@H](CCCCN)C(=O)N[C@@H](Cc1c[nH]c3ccc(O)cc13)C(=O)NC1(CCN(CC(=O)O)CC1)C(=O)N[C@@H](C(C)C)C(=O)N[C@H](C(=O)NCCCC[C@H](NC(=O)CC[C@H](NC(=O)CC[C@H](NC(=O)CCCCCCCCCCCCCCC(=O)O)C(=O)O)C(=O)O)C(N)=O)CSCC(=O)N[C@@H](Cc1ccc(O)cc1)C(=O)N2C [Compound 23] ({CH2CO}-Y[NMeK]VVSN[Trp(1-CH2CO)][Phe(4-COOH)]K[Trp(5-OH)][X7]VC-X3; lactam 2-7; thioether N-13) | 8.64
